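A five-concentration, 48-hour dose response in 96-well plates underlies each endpoint, interpolated linearly between surrounding concentrations. At the GI50, growth is halved.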 Activity calls are given as the source filed them. Cut-off read from the data, not from the text of the source: active = GI50 up to about 1.1 µM and inactive = higher.
Legend:
Experiment in all cases: DTP human tumour cell line panel, 48 h
M14 = system: M14
A549 = system: A549
SNB-19 = system: SNB-19
HCT-15 = system: HCT-15
NCI/ADR-RES = system: NCI/ADR-RES
MDA-MB-435 = system: MDA-MB-435
U-251 = system: U-251
HCC 2998 = system: HCC 2998
SK-OV-3 = system: SK-OV-3
NCI-H226 = system: NCI-H226
SR = system: SR
SW-620 = system: SW-620
EKVX = system: EKVX
BT-549 = system: BT-549
OVCAR-3 = system: OVCAR-3
A498 = system: A498
CAKI-1 = system: CAKI-1
RXF 393 = system: RXF 393
OVCAR-8 = system: OVCAR-8
LOX IMVI = system: LOX IMVI
RPMI-8226 = system: RPMI-8226
COLO 205 = system: COLO 205
UACC-257 = system: UACC-257
K562 = system: K562
MCF7 = system: MCF7
TK-10 = system: TK-10
SK-MEL-28 = system: SK-MEL-28
SK-MEL-5 = system: SK-MEL-5
ACHN = system: ACHN
SNB-75 = system: SNB-75
Hs-578T = system: Hs-578T
HOP-62 = system: HOP-62
OVCAR-4 = system: OVCAR-4
MOLT-4 = system: MOLT-4
DU-145 = system: DU-145
NCI-H23 = system: NCI-H23
HT-29 = system: HT-29
T47D = system: T47D
CCRF-CEM = system: CCRF-CEM
SF-268 = system: SF-268
HOP-92 = system: HOP-92
SK-MEL-2 = system: SK-MEL-2
786-0 = system: 786-0
IGROV-1 = system: IGROV-1
KM12 = system: KM12
HCT-116 = system: HCT-116
MDA-MB-231 = system: MDA-MB-231
UACC-62 = system: UACC-62
SF-539 = system: SF-539
SF-295 = system: SF-295
PC-3 = system: PC-3
OVCAR-5 = system: OVCAR-5
SN12C = system: SN12C
NCI-H522 = system: NCI-H522
UO-31 = system: UO-31
Malme-3M = system: Malme-3M
HL-60 = system: HL-60
NCI-H460 = system: NCI-H460

Nc1ccccc1-c1noc(=O)[nH]1
GI50 (M14): > 100 µM (inactive)
GI50 (A549): > 100 µM (inactive)
GI50 (SNB-19): > 100 µM (inactive)
GI50 (HCT-15): > 100000 nM
GI50 (NCI/ADR-RES): > 100 µM (inactive)
GI50 (MDA-MB-435): > 100 µM (inactive)
GI50 (U-251): > 100 µM (inactive)
GI50 (HCC 2998): > 100 µM (inactive)
GI50 (SK-OV-3): > 100 µM (inactive)
GI50 (NCI-H226): > 100 µM (inactive)
GI50 (SR): > 100 µM (inactive)
GI50 (SW-620): > 100 µM (inactive)
GI50 (EKVX): > 100 µM (inactive)
GI50 (BT-549): > 100 µM (inactive)
GI50 (OVCAR-3): > 100 µM (inactive)
GI50 (A498): > 100 µM (inactive)
GI50 (CAKI-1): > 100 µM (inactive)
GI50 (RXF 393): > 100 µM (inactive)
GI50 (OVCAR-8): > 100 µM (inactive)
GI50 (LOX IMVI): > 100 µM (inactive)
GI50 (RPMI-8226): > 100 µM (inactive)
GI50 (COLO 205): > 100 µM (inactive)
GI50 (UACC-257): > 100 µM (inactive)
GI50 (K562): > 100 µM (inactive)
GI50 (MCF7): > 100 µM (inactive)
GI50 (TK-10): > 100 µM (inactive)
GI50 (SK-MEL-28): > 100 µM (inactive)
GI50 (SK-MEL-5): > 100 µM (inactive)
GI50 (ACHN): > 100 µM (inactive)
GI50 (SNB-75): > 100 µM (inactive)
GI50 (Hs-578T): > 100 µM (inactive)
GI50 (HOP-62): > 100 µM (inactive)
GI50 (OVCAR-4): > 100 µM (inactive)
GI50 (MOLT-4): > 100 µM (inactive)
GI50 (DU-145): > 100 µM (inactive)
GI50 (NCI-H23): > 100 µM (inactive)
GI50 (HT-29): > 100 µM (inactive)
GI50 (T47D): > 100 µM (inactive)
GI50 (CCRF-CEM): > 100 µM (inactive)
GI50 (SF-268): > 100 µM (inactive)
GI50 (HOP-92): > 100 µM (inactive)
GI50 (SK-MEL-2): > 100 µM (inactive)
GI50 (786-0): > 100 µM (inactive)
GI50 (IGROV-1): 60.4 µM (inactive)
GI50 (KM12): > 100 µM (inactive)
GI50 (HCT-116): > 100 µM (inactive)
GI50 (MDA-MB-231): > 100 µM (inactive)
GI50 (UACC-62): > 100 µM (inactive)
GI50 (SF-539): > 100 µM (inactive)
GI50 (SF-295): > 100 µM (inactive)
GI50 (PC-3): > 100 µM (inactive)
GI50 (OVCAR-5): > 100 µM (inactive)
GI50 (SN12C): > 100 µM (inactive)
GI50 (NCI-H522): > 100 µM (inactive)
GI50 (UO-31): > 100 µM (inactive)

Nc1nc(Cl)c2ncn(Cc3cccc(CCl)c3)c2n1
GI50 (M14): 3.66 µM (inactive)
GI50 (A549): 13.2 µM (inactive)
GI50 (SNB-19): 5.89 µM (inactive)
GI50 (HCT-15): 2120 nM
GI50 (NCI/ADR-RES): 3.47 µM (inactive)
GI50 (Malme-3M): 5.81 µM (inactive)
GI50 (MDA-MB-435): 6.73 µM (inactive)
GI50 (U-251): 2.17 µM (inactive)
GI50 (HCC 2998): 3.03 µM (inactive)
GI50 (SK-OV-3): 20 µM (inactive)
GI50 (NCI-H226): 6.28 µM (inactive)
GI50 (SR): 1.74 µM (inactive)
GI50 (SW-620): 3.61 µM (inactive)
GI50 (EKVX): 8.97 µM (inactive)
GI50 (BT-549): 4.09 µM (inactive)
GI50 (OVCAR-3): 1.33 µM (inactive)
GI50 (HL-60): 3.95 µM (inactive)
GI50 (A498): 25 µM (inactive)
GI50 (CAKI-1): 1.23 µM (inactive)
GI50 (RXF 393): 2.61 µM (inactive)
GI50 (OVCAR-8): 3.24 µM (inactive)
GI50 (LOX IMVI): 3.33 µM (inactive)
GI50 (RPMI-8226): 2.57 µM (inactive)
GI50 (COLO 205): 8.38 µM (inactive)
GI50 (UACC-257): 6.01 µM (inactive)
GI50 (K562): 4.38 µM (inactive)
GI50 (MCF7): 5.35 µM (inactive)
GI50 (TK-10): 6.31 µM (inactive)
GI50 (SK-MEL-28): 5.28 µM (inactive)
GI50 (SK-MEL-5): 5.7 µM (inactive)
GI50 (ACHN): 3.45 µM (inactive)
GI50 (SNB-75): 9.75 µM (inactive)
GI50 (Hs-578T): 7.03 µM (inactive)
GI50 (HOP-62): 2.84 µM (inactive)
GI50 (OVCAR-4): 2.13 µM (inactive)
GI50 (MOLT-4): 3.6 µM (inactive)
GI50 (DU-145): 6.03 µM (inactive)
GI50 (NCI-H23): 1.87 µM (inactive)
GI50 (HT-29): 3.87 µM (inactive)
GI50 (T47D): 7.36 µM (inactive)
GI50 (CCRF-CEM): 3.18 µM (inactive)
GI50 (SF-268): 5.09 µM (inactive)
GI50 (HOP-92): 1.64 µM (inactive)
GI50 (SK-MEL-2): 12.1 µM (inactive)
GI50 (786-0): 5.37 µM (inactive)
GI50 (IGROV-1): 3.31 µM (inactive)
GI50 (KM12): 4.53 µM (inactive)
GI50 (NCI-H460): 3.87 µM (inactive)
GI50 (HCT-116): 2 µM (inactive)
GI50 (MDA-MB-231): 11 µM (inactive)
GI50 (UACC-62): 4.16 µM (inactive)
GI50 (SF-539): 5.24 µM (inactive)
GI50 (SF-295): 7.01 µM (inactive)
GI50 (PC-3): 10.2 µM (inactive)
GI50 (OVCAR-5): 9.16 µM (inactive)
GI50 (SN12C): 8.05 µM (inactive)
GI50 (NCI-H522): 2.4 µM (inactive)
GI50 (UO-31): 13.4 µM (inactive)

Source: ChEMBL document CHEMBL1201862, “PubChem BioAssay data set” (2004)
